Numbering of substitutions follows the chain as printed. Entries after “also recorded” stand apart in the source; their conditions may differ.
Experiments:
[1] = published, Contreras et al. 2006; cited from earlier work
[2] = biological target: T1, 14-3-3ζ (Homo sapiens, UniProt P63104); test: 14-3-3 phosphorylation by PKCδCat-HA immunoprecipitates; type: biochemical; conditions: recombinant 14-3-3ζ, FIG. 5B
T1 construct: made in house
T1 sequence (P63104 1-245): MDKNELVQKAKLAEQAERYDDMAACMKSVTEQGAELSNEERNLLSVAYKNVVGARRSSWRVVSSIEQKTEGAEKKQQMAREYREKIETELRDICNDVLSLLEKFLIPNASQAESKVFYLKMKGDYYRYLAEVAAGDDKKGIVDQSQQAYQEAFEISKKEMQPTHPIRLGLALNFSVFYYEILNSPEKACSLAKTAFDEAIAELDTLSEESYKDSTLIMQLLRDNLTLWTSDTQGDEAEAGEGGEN
Description: FIG. 5 is an image depicting that DMS is required for phosphorylation of 14-3-3ζ by PKCδCat but not for activation of the kinase. COS cells were transfected with either an empty expression construct (Mock) or one encoding a HA-tagged truncated form of PKCδ corresponding to the caspase-3 cleaved protein (PKCδCat-HA). 20 hours after transfection the cells were lysed and PKCδCat-HA was immunoprecipitated using an anti-HA antibody. (A) PKC assays were carried out on the immunoprecipitates from mock (open bars) and PKCδCat-HA (shaded bars) expressing cells using Ser25 peptide as substrate with [^32P]γ-ATP in the presence or absence of 100 μM DMS (delivered in 0.1% ethanol) or 10 μM of GF109203X (GFX), the PKC inhibitor. The values represent means±S.E. of triplicate determinations. (B) PKCδCat-HA immunoprecipitates were incubated with recombinant 14-3-3ζ and [^32P]γ-ATP in the presence or absence of DMS or GF109203X (GFX). Phosphorylated 14-3-3 was detected by autoradiography after separation of SDS-PAGE (upper panel). The gel was also coomassie stained to show equal loading of 14-3-3 protein (lower panel).
Equal amounts of PKCδCat-HA immunoprecipitate were used to assay for PKC kinase activity, or to phosphorylate recombinant 14-3-3. […] Following incubation, reactions were separated on 12.5% SDS-PAGE, coomassie stained and 14-3-3 phosphorylation analysed by autoradiography.

[3] = biological target: T2, 14-3-3ζ S58A mutant (Homo sapiens, UniProt P63104, S58A); test: Phosphorylation of S58A mutant 14-3-3ζ by PKA catalytic subunit; type: biochemical; conditions: 50 μM sphingosine; alanine substitution of Ser58
T2 construct: made in house
T2 sequence (P63104 1-245 S58A): T1 sequence (P63104 1-245) with S58A
Description: FIG. 1 is an image depicting that sphingosine is required for 14-3-3ζ phosphorylation on Ser58 by the catalytic subunit of PKA. 14-3-3ζ (wild-type or S58A mutant) was incubated with the catalytic subunit of PKA in the presence (+) or absence (−) of 50 μM sphingosine (A) or DMS (B) delivered in 0.1% ethanol. Phosphorylated 14-3-3ζ was detected by autoradiography. Gels were coomassie stained to show equal loading of 14-3-3 substrate.
(§1) Substrate 14-3-3 (either 0.5 μg of purified recombinant 14-3-3, a […] of fractions from gel filtration or immunoprecipitates from 14-3-3ζ-Myc transfected COS cells) were added to reaction mixture comprising 0.2 Units of the PKA catalytic subunit, in the presences or absence of sphingolipid (delivered in 0.1% v/v ethanol) in PICA reaction buffer (20 mM MOPS, pH 7.4, 20 mM β-glycerol phosphate, 4 mM EGTA, 1 mM Na3VO4, 60 mM MgCl2, 1 mM DTT, 500 μM ATP, 2.4 μCi [^32P]γ-ATP). Reactions were incubated at 37° C. for 15 minutes. After incubation, reactions were separated on 12.5% SDS-PAGE, coomassie stained and 14-3-3 phosphorylation analysed by autoradiography.

[4] = tested on: 14-3-3 isoforms; test: Phosphorylation of recombinant 14-3-3 isoforms by PKA catalytic subunit; type: biochemical; conditions: 50 μM in 0.1% ethanol
Description: FIG. 3 is an image depicting that sphingosine is required for the phosphorylation of multiple 14-3-3 isoforms in the third helix. (A) Primary sequence alignment of 14-3-3 isoforms in the third helix showing conservation of a Ser phosphorylation site (shown in bold). Asterisks indicate identical amino acids. (B) Recombinant 14-3-3 isoforms were incubated with PKA catalytic subunit in the presence of 50 μM sphingosine, dimethyl-sphingosine (DMS) or FTY 720 (FTY) delivered in 0.1% ethanol (EtOH). Phosphorylated 14-3-3s were detected by autoradiography. Gels were coomassie stained to show equal loading of 14-3-3 substrate.
as §1

[5] = biological target: T1, 14-3-3ζ; test: 14-3-3 phosphorylation by PKA catalytic subunit (autoradiography); type: biochemical; conditions: 50 μM lipid delivered in 0.1% ethanol
Description: 14-3-3ζ (wild-type or S58A mutant) was incubated with the catalytic subunit of PKA in the presence (+) or absence (−) of 50 μM sphingosine (A) or DMS (B) delivered in 0.1% ethanol. Phosphorylated 14-3-3ζ was detected by autoradiography.
The assay was carried out by incubating 14-3-g (0.5 μg) with catalytic subunit of PKA (0.2 Units) with the indicated concentration of DMS delivered in 0.1% ethanol. Reactions were separated on SDS-PAGE and phosphorylated protein detected by autoradiography. […] (B) 14-3-3ζ was incubated with the catalytic subunit of PKA and 50 μM D-erythro-sphingosine (Sph), D-erythro-trimethyl-sphingosine (TMS), D-erythro-dihydro-sphingosine (DHS), phyto-sphingosine (PSph), D-erythro-sphingosine-1-phosphate (SIP), C2-ceramide (C2-Cer), sphingomyelin (SM), spermine (Sper) or linoleic acid (LA), all delivered in 0.1% ethanol. Phosphorylated 14-3-3ζ was detected by autoradiography.
as §1

[6] = biological target: T1, 14-3-3ζ; test: Gel filtration of 14-3-3ζ with DMS and [3H]-sphingosine; type: binding; conditions: co-elution in fractions 3-14; 25 μM DMS with trace [3H]-sphingosine
Description: FIG. 4 is a graphical representation depicting that sphingosine binds to 14-3-3 in vitro. 10 μg of recombinant 14-3-3 was incubated for 15 minutes at room temperature in 50 μl of buffer either in the absence (FIG. A, thick line) or presence of [^3H]-sphingosine (0.5 μCi) with 25 μM DMS (thin line). After incubation, the mixtures were separated by gel filtration as described under “examples”. (A) Absorbance at 280 nm was monitored continuously to identify the elution position of 14-3-3 protein. An aliquot of each eluted fraction was analysed for (B) sphingosine-binding to 14-3-3 by measuring [^3H]-sphingosine radioactivity as determined by scintillation counting; and (C) 14-3-3 phosphorylatability by incubation with 0.2 Units of PKA catalytic subunit and [^32P]γ-ATP. Phosphorylated 14-3-3 was detected by autoradiography. The chromatography and assays were repeated twice and similar results obtained.
Recombinant 14-3-3ζ (10 μg) was pre-incubated with 25 μM […] delivered in 0.1% v/v ethanol and [^3H]-sphingosine, (0.5 μCi) and then chromatographed on a SMART system with a Superdex 200PC 3.2/30 column (Amersham Biosciences, Australia). The system was operated at 40 μl/min using 20 mM Tris-HCl pH 7.5, 150 mM NaCl, 0.1 mM DTT, 10 mM β-mercaptoethanol as running buffer. Fractions (40 μl) were collected for 60 minutes after sample injection. […]

**Q.** Which results are given for CCCCCCCCCCCCC/C=C/[C@@H](O)[C@@H](N)CO [sphingosine, D-erythro-sphingosine]?
**A.** critical micelle concentration [1]: 18 µM; phosphorylation of 14-3-3 by PKCδCat [2]: no phosphorylation is observed with PKCδCat unless sphingosine is present; sphingosine-dependent phosphorylation of S58A 14-3-3ζ [3]: abolished; phosphorylation of 14-3-3 isoforms by PKA catalytic subunit [4]: all isoforms tested with the exception of 14-3-36 were phosphorylatable; phosphorylation of 14-3-3ζ on Ser58 by PKA catalytic subunit [5]: not phosphorylated by PKA catalytic subunit unless sphingosine was present; also recorded: allowed phosphorylation; binding of [3H]-sphingosine to 14-3-3 [6]: directly bound to 14-3-3

From patent publication US20130231305A1, “Method of Modulating Protein 14-3-3 Functionality By Facilitating or Inhibiting Phosphorylation” (Medvet Science Pty. Ltd., priority 2010, published 2013)
